The text below walks through data of ChEMBL document CHEMBL1145718, “Two new nitrogenous sesquiterpenes from the sponge Axinyssa aplysinoides” (1997).

What all share (format): functional
Assay [1] has as its system Saccharomyces cerevisiae. Nature of the assay: DNA damaging activity against wild type yeast assessed as drug level required to produce 12 mm zone of inhibition assessed per 100 uL.
The test system of assay [2] is Saccharomyces cerevisiae. Kind of assay: DNA damaging activity against DNA repair-deficient delta RAD52/delta TOP1 mutant yeast assessed as drug level required to produce 12 mm zone of inhibition assessed per 100 uL.
For assay [3], the system named is Saccharomyces cerevisiae. Nature of the assay: DNA damaging activity against DNA repair-deficient delta RAD52 mutant yeast assessed as drug level required to produce 12 mm zone of inhibition assessed per 100 uL.

For `CC(C)[C@@H]1C[C@@H]2C(C)(NC=O)[C@H]3C[C@@H]1C[C@]2(C)C3` (stereo partly specified), the IC12 in the assay with Saccharomyces cerevisiae [1] came out at 31 µg; with Saccharomyces cerevisiae [2] it was 4.8 µg; with Saccharomyces cerevisiae [3], 51 µg.
In the case of `CC(C)[C@@H]1C[C@@H]2C(C)(NC(=O)NCCc3ccccc3)[C@H]3C[C@@H]1C[C@]2(C)C3` (stereo partly specified), the IC12 was found to be 14 µg in the assay with Saccharomyces cerevisiae [1], 12 µg with Saccharomyces cerevisiae [2] and 45 µg in the assay on Saccharomyces cerevisiae [3].
